Assay results taken from ChEMBL document CHEMBL1201861, “Genomics of Drug Sensitity in Cancer screening data, Wellcome Trust Sanger Institute”.

Assays:
Type in all cases: functional, cell-based
SNG-M = assay: cells; settings: Homo sapiens
Description: SANGER: Inhibition of human SNG-M cell growth in a cell viability assay.

IPC-298 = assay: SANGER: Inhibition of human IPC-298 cell growth in a cell viability assay.
COLO 205 = assay: cells; settings: Homo sapiens
Description: SANGER: Inhibition of human COLO-205 cell growth in a cell viability assay.

NCI-H1734 = assay: cells; settings: Homo sapiens;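 note: growth inhibition of human NCI-H1734 cells, read out with a cell viability assay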
Description: SANGER: Inhibition of human NCI-H1734 cell growth in a cell viability assay.

NCI-H838 = assay: cells; settings: Homo sapiens;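 note: growth inhibition of human NCI-H838 cells, read out by a cell viability assay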
Description: SANGER: Inhibition of human NCI-H838 cell growth in a cell viability assay.

SNU-475 = assay: cells; settings: Homo sapiens
Description: SANGER: Inhibition of human SNU-475 cell growth in a cell viability assay.

MDA-MB-468 = assay: cells; settings: Homo sapiens
Description: SANGER: Inhibition of human MDA-MB-468 cell growth in a cell viability assay.

Caov-3 cell line = assay: cells; settings: Homo sapiens;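 note: cell growth inhibition read out by a viability assay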
Description: SANGER: Inhibition of human Caov-3 cell growth in a cell viability assay.

DV-90 = assay: cells; settings: Homo sapiens;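 note: Read-out is a viability assay, with IC50 reflecting the drop in DV-90 cell growth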
Description: SANGER: Inhibition of human DV-90 cell growth in a cell viability assay.

NCI-H1618 = assay: cells; settings: Homo sapiens;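 note: growth inhibition of human NCI-H1618 cells, measured by a cell viability assay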
Description: SANGER: Inhibition of human NCI-H1618 cell growth in a cell viability assay.

EFE-184 = assay: cells; settings: Homo sapiens
Description: SANGER: Inhibition of human EFE-184 cell growth in a cell viability assay.

NCI-H2227 = assay: cells; settings: Homo sapiens;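 note: growth inhibition of the human cell line, read out with a cell viability assay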
Description: SANGER: Inhibition of human NCI-H2227 cell growth in a cell viability assay.

PLC-PRF-5 = assay: cells; settings: Homo sapiens;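 note: growth inhibition of human PLC-PRF-5 cells, read out with a viability assay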
Description: SANGER: Inhibition of human PLC-PRF-5 cell growth in a cell viability assay.

EW-7 = assay: SANGER: Inhibition of human EW-7 cell growth in a cell viability assay.
SK-CO-1 = assay: cells; settings: Homo sapiens;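 note: growth inhibition of SK-CO-1 cells, determined by a viability readout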
Description: SANGER: Inhibition of human SK-CO-1 cell growth in a cell viability assay.

C-4-II = assay: SANGER: Inhibition of human C-4-II cell growth in a cell viability assay.
RT-4 = assay: SANGER: Inhibition of human RT4 cell growth in a cell viability assay.
HCC1143 = assay: cells; settings: Homo sapiens;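 note: growth inhibition of human HCC1143 cells, read out with a cell viability assay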
Description: SANGER: Inhibition of human HCC1143 cell growth in a cell viability assay.

MES-SA = assay: cells; settings: Homo sapiens;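 note: growth inhibition of human MES-SA cells, read out with a cell viability assay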
Description: SANGER: Inhibition of human MES-SA cell growth in a cell viability assay.

TT = assay: cells; settings: Homo sapiens
Description: SANGER: Inhibition of human TT cell growth in a cell viability assay.

D-566MG = assay: cells; settings: Homo sapiens
ECC10 = assay: cells; settings: Homo sapiens;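 note: growth inhibition of ECC10 cells, read out by a cell viability assay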
Description: SANGER: Inhibition of human ECC10 cell growth in a cell viability assay.

CFPAC-1 = assay: cells; settings: Homo sapiens;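 note: cell viability readout used to gauge suppression of CFPAC-1 cell proliferation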
Description: SANGER: Inhibition of human CFPAC-1 cell growth in a cell viability assay.

BALL-1 = assay: cells; settings: Homo sapiens;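 note: growth inhibition of BALL-1 cells, read out with a cell viability assay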
Description: SANGER: Inhibition of human BALL-1 cell growth in a cell viability assay.

H-EMC-SS = assay: cells; settings: Homo sapiens
Description: SANGER: Inhibition of human H-EMC-SS cell growth in a cell viability assay.

NCI-H1666 = assay: cells; settings: Homo sapiens;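 note: growth inhibition of the cell line, read out with a cell viability assay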
Description: SANGER: Inhibition of human NCI-H1666 cell growth in a cell viability assay.

TI-73 = assay: cells; settings: Homo sapiens;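 note: cell viability assay measuring how much compounds suppress growth of the cultured cell line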
Description: SANGER: Inhibition of human TI-73 cell growth in a cell viability assay.

LU-135 = assay: cells; settings: Homo sapiens
Description: SANGER: Inhibition of human LU-135 cell growth in a cell viability assay.

RH-18 = assay: cells; settings: Homo sapiens, Rh18;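 note: growth inhibition of human RH-18 cells, read out with a cell viability assay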
Description: SANGER: Inhibition of human RH-18 cell growth in a cell viability assay.

BT-549 = assay: cells; settings: Homo sapiens
Description: SANGER: Inhibition of human BT-549 cell growth in a cell viability assay.

SW900 = assay: cells; settings: Homo sapiens;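 note: IC50 is the concentration that inhibits SW900 cell growth, measured by a cell viability assay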
Description: SANGER: Inhibition of human SW900 cell growth in a cell viability assay.

NBsusSR = assay: cells; settings: Homo sapiens;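 note: growth inhibition of the human cell line, read out with a cell viability assay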
Description: SANGER: Inhibition of human NBsusSR cell growth in a cell viability assay.

NCI-H2029 = assay: cells; settings: Homo sapiens;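 note: Read-out is a viability assay on the cultured cells, and IC50 is the concentration that suppresses cell growth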
Description: SANGER: Inhibition of human NCI-H2029 cell growth in a cell viability assay.

TGBC11TKB = assay: cells; settings: Homo sapiens;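 note: growth inhibition of human TGBC11TKB cells, measured by a cell viability assay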
Description: SANGER: Inhibition of human TGBC11TKB cell growth in a cell viability assay.

D-423MG = assay: cells; settings: Homo sapiens
Description: SANGER: Inhibition of human D-423MG cell growth in a cell viability assay.

NCI-H2291 = assay: cells; settings: Homo sapiens
Description: SANGER: Inhibition of human NCI-H2291 cell growth in a cell viability assay.

KNS-62 = assay: cells; settings: Homo sapiens;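 note: inhibition of cell growth, read out with a cell viability assay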
Description: SANGER: Inhibition of human KNS-62 cell growth in a cell viability assay.

ZR-75-30 = assay: cells; settings: Homo sapiens;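 note: growth inhibition of ZR-75-30 cells, measured with a cell viability readout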
Description: SANGER: Inhibition of human ZR-75-30 cell growth in a cell viability assay.

H9 = assay: cells; settings: Homo sapiens
Description: SANGER: Inhibition of human H9 cell growth in a cell viability assay.

NCI-H1048 = assay: cells; settings: Homo sapiens;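 note: growth inhibition of human NCI-H1048 cells, read out with a cell viability assay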
Description: SANGER: Inhibition of human NCI-H1048 cell growth in a cell viability assay.

YH-13 = assay: cells; settings: Homo sapiens;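 note: cell viability readout of growth suppression in the human YH-13 cell line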
Description: SANGER: Inhibition of human YH-13 cell growth in a cell viability assay.

A549 = assay: cells; settings: Homo sapiens;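 note: growth inhibition of A549 cells, read out with a cell viability assay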
Description: SANGER: Inhibition of human A549 cell growth in a cell viability assay.

EPLC-272H = assay: cells; settings: Homo sapiens
Description: SANGER: Inhibition of human EPLC-272H cell growth in a cell viability assay.

OC-314 = assay: cells; settings: Homo sapiens
Description: SANGER: Inhibition of human OC-314 cell growth in a cell viability assay.

C/C(O)=C(\C#N)C(=O)Nc1cc(Br)ccc1Br
IC50 (SNG-M): > 16000 nM | IC50 (IPC-298): > 16000 nM | IC50 (COLO 205): > 16000 nM | IC50 (NCI-H1734): > 16000 nM | IC50 (NCI-H838): > 16000 nM | IC50 (SNU-475): > 16000 nM | IC50 (MDA-MB-468): > 16000 nM | IC50 (Caov-3 cell line): > 16000 nM | IC50 (DV-90): > 16000 nM | IC50 (NCI-H1618): > 16000 nM | IC50 (EFE-184): > 16000 nM | IC50 (NCI-H2227): > 16000 nM | IC50 (PLC-PRF-5): > 16000 nM | IC50 (EW-7): > 16000 nM | IC50 (SK-CO-1): > 16000 nM | IC50 (C-4-II): > 16000 nM | IC50 (RT-4): > 16000 nM | IC50 (HCC1143): > 16000 nM | IC50 (MES-SA): > 16000 nM | IC50 (TT): > 16000 nM

C/C=C(/C)C(=O)O[C@H]1C(C)=C2[C@H]([C@@H]1OC(=O)CCCCCCC)[C@@](C)(OC(C)=O)C[C@H](OC(=O)CCC)[C@@]1(O)[C@H]2OC(=O)[C@@]1(C)O [THAPSIGARGIN]
IC50 (SNG-M): < 2 nM | IC50 (IPC-298): 6.54 nM | IC50 (COLO 205): 3.15 nM | IC50 (NCI-H1734): 1.48 nM | IC50 (NCI-H838): 35.3 nM | IC50 (SNU-475): > 512 nM | IC50 (MDA-MB-468): 3.98 nM | IC50 (Caov-3 cell line): 37.2 nM | IC50 (DV-90): 28.8 nM | IC50 (NCI-H1618): 10.1 nM | IC50 (EFE-184): > 512 nM | IC50 (NCI-H2227): > 512 nM | IC50 (PLC-PRF-5): 91.8 nM | IC50 (EW-7): 6.34 nM | IC50 (SK-CO-1): 17 nM | IC50 (C-4-II): 20.6 nM | IC50 (RT-4): 3.74 nM | IC50 (HCC1143): 2.07 nM | IC50 (MES-SA): < 2 nM | IC50 (TT): 217 nM

CO[C@@]12[C@H](COC(N)=O)C3=C(C(=O)C(C)=C(N)C3=O)N1C[C@@H]1N[C@@H]12 [MITOMYCIN]
IC50 (SNG-M): 134 nM | IC50 (IPC-298): 1230 nM | IC50 (COLO 205): < 62.5 nM | IC50 (NCI-H1734): 137 nM | IC50 (NCI-H838): 1230 nM | IC50 (SNU-475): 813 nM | IC50 (MDA-MB-468): 345 nM | IC50 (Caov-3 cell line): 162 nM | IC50 (DV-90): 2920 nM | IC50 (NCI-H1618): 118 nM | IC50 (EFE-184): 1380 nM | IC50 (NCI-H2227): 6320 nM | IC50 (PLC-PRF-5): 4190 nM | IC50 (EW-7): < 62.5 nM | IC50 (SK-CO-1): 202 nM | IC50 (C-4-II): 104 nM | IC50 (RT-4): 1700 nM | IC50 (HCC1143): 1070 nM | IC50 (MES-SA): 145 nM | IC50 (TT): 3680 nM

N#C/C(=C1/Nc2ccccc2S1)c1ccnc(NCCc2cccnc2)n1
IC50 (SNG-M): 980 nM | IC50 (IPC-298): 7400 nM | IC50 (COLO 205): > 8000 nM | IC50 (NCI-H1734): > 8000 nM | IC50 (NCI-H838): > 8000 nM | IC50 (SNU-475): > 8000 nM | IC50 (MDA-MB-468): > 8000 nM | IC50 (Caov-3 cell line): > 8000 nM | IC50 (DV-90): > 8000 nM | IC50 (NCI-H1618): > 8000 nM | IC50 (EFE-184): 4700 nM | IC50 (NCI-H2227): > 8000 nM | IC50 (PLC-PRF-5): > 8000 nM | IC50 (EW-7): > 8000 nM | IC50 (SK-CO-1): > 8000 nM | IC50 (C-4-II): > 8000 nM | IC50 (RT-4): > 8000 nM | IC50 (HCC1143): 4210 nM | IC50 (MES-SA): 4670 nM | IC50 (TT): > 8000 nM

COc1cc(Nc2c(C#N)cnc3cc(OCCCN4CCN(C)CC4)c(OC)cc23)c(Cl)cc1Cl [BOSUTINIB]
IC50 (D-566MG): 1570 nM | IC50 (ECC10): > 2000 nM | IC50 (CFPAC-1): > 2000 nM | IC50 (BALL-1): > 2000 nM | IC50 (H-EMC-SS): > 2000 nM | IC50 (NCI-H1666): > 2000 nM | IC50 (TI-73): 1020 nM | IC50 (LU-135): > 2000 nM | IC50 (RH-18): > 2000 nM | IC50 (BT-549): > 2000 nM | IC50 (SW900): > 2000 nM | IC50 (NBsusSR): > 2000 nM | IC50 (NCI-H2029): > 2000 nM | IC50 (TGBC11TKB): > 2000 nM | IC50 (D-423MG): > 2000 nM | IC50 (NCI-H2291): > 2000 nM | IC50 (KNS-62): > 2000 nM | IC50 (ZR-75-30): > 2000 nM | IC50 (H9): 435 nM | IC50 (NCI-H1048): > 2000 nM | IC50 (YH-13): > 2000 nM | IC50 (A549): > 2000 nM | IC50 (EPLC-272H): > 2000 nM | IC50 (OC-314): 870 nM

CC(O)(CS(=O)(=O)c1ccc(F)cc1)C(=O)Nc1ccc(C#N)c(C(F)(F)F)c1 (stereo not drawn) [BICALUTAMIDE]
IC50 (SNG-M): > 1020 nM | IC50 (IPC-298): > 1020 nM | IC50 (COLO 205): > 1020 nM | IC50 (NCI-H1734): > 1020 nM | IC50 (NCI-H838): > 1020 nM | IC50 (SNU-475): > 1020 nM | IC50 (MDA-MB-468): > 1020 nM | IC50 (Caov-3 cell line): > 1020 nM | IC50 (DV-90): > 1020 nM | IC50 (NCI-H1618): > 1020 nM | IC50 (EFE-184): > 1020 nM | IC50 (NCI-H2227): > 1020 nM | IC50 (PLC-PRF-5): > 1020 nM | IC50 (EW-7): > 1020 nM | IC50 (SK-CO-1): > 1020 nM | IC50 (C-4-II): > 1020 nM | IC50 (RT-4): > 1020 nM | IC50 (HCC1143): > 1020 nM | IC50 (MES-SA): > 1020 nM | IC50 (TT): > 1020 nM

C[C@]1(c2nc3c(C(N)=O)cccc3[nH]2)CCCN1 [VELIPARIB]
IC50 (D-566MG): > 5000 nM | IC50 (ECC10): > 5000 nM | IC50 (CFPAC-1): > 5000 nM | IC50 (BALL-1): > 5000 nM | IC50 (H-EMC-SS): > 5000 nM | IC50 (NCI-H1666): > 5000 nM | IC50 (TI-73): > 5000 nM | IC50 (LU-135): > 5000 nM | IC50 (RH-18): > 5000 nM | IC50 (BT-549): > 5000 nM | IC50 (SW900): > 5000 nM | IC50 (NBsusSR): > 5000 nM | IC50 (NCI-H2029): > 5000 nM | IC50 (TGBC11TKB): > 5000 nM | IC50 (D-423MG): > 5000 nM | IC50 (NCI-H2291): > 5000 nM | IC50 (KNS-62): > 5000 nM | IC50 (ZR-75-30): > 5000 nM | IC50 (H9): > 5000 nM | IC50 (NCI-H1048): > 5000 nM | IC50 (YH-13): > 5000 nM | IC50 (A549): > 5000 nM | IC50 (EPLC-272H): > 5000 nM | IC50 (OC-314): > 5000 nM

CC[C@@]1(O)C(=O)OCc2c1cc1n(c2=O)Cc2cc3ccccc3nc2-1 [CAMPTOTHECIN]
IC50 (D-566MG): 0.132 nM | IC50 (ECC10): 3.85 nM | IC50 (CFPAC-1): 14.8 nM | IC50 (H-EMC-SS): 95.6 nM | IC50 (NCI-H1666): 18.7 nM | IC50 (TI-73): 14.6 nM | IC50 (LU-135): 28.2 nM | IC50 (BT-549): 17.6 nM | IC50 (SW900): 31.8 nM | IC50 (NBsusSR): 0.194 nM | IC50 (TGBC11TKB): 12.2 nM | IC50 (D-423MG): 2.55 nM | IC50 (NCI-H2291): > 100 nM | IC50 (KNS-62): 7.7 nM | IC50 (H9): 0.358 nM | IC50 (NCI-H1048): 0.529 nM | IC50 (YH-13): 11.6 nM | IC50 (A549): 14.1 nM | IC50 (EPLC-272H): 72.8 nM | IC50 (OC-314): 2.51 nM

CCNC(=O)c1noc(-c2cc(C(C)C)c(O)cc2O)c1-c1ccc(CN2CCOCC2)cc1 [LUMINESPIB]
IC50 (SNG-M): 8.56 nM | IC50 (IPC-298): 96.4 nM | IC50 (COLO 205): 49.2 nM | IC50 (NCI-H1734): 32.3 nM | IC50 (NCI-H838): 237 nM | IC50 (SNU-475): > 256 nM | IC50 (MDA-MB-468): 99.9 nM | IC50 (Caov-3 cell line): > 256 nM | IC50 (DV-90): > 256 nM | IC50 (NCI-H1618): > 256 nM | IC50 (EFE-184): 246 nM | IC50 (NCI-H2227): > 256 nM | IC50 (PLC-PRF-5): > 256 nM | IC50 (EW-7): 7.54 nM | IC50 (SK-CO-1): 79.9 nM | IC50 (C-4-II): 122 nM | IC50 (RT-4): > 256 nM | IC50 (HCC1143): > 256 nM | IC50 (MES-SA): 4.52 nM | IC50 (TT): > 256 nM
